The structures appear in SMILES notation.

The target in the first experiment is T1, Menin-MLL (Homo sapiens, UniProt O00255).
T1 construct: His-Menin (M1-L615 end); purchased BIORTUS BP9210
T1 sequence (O00255 1-615 isoform O00255-1): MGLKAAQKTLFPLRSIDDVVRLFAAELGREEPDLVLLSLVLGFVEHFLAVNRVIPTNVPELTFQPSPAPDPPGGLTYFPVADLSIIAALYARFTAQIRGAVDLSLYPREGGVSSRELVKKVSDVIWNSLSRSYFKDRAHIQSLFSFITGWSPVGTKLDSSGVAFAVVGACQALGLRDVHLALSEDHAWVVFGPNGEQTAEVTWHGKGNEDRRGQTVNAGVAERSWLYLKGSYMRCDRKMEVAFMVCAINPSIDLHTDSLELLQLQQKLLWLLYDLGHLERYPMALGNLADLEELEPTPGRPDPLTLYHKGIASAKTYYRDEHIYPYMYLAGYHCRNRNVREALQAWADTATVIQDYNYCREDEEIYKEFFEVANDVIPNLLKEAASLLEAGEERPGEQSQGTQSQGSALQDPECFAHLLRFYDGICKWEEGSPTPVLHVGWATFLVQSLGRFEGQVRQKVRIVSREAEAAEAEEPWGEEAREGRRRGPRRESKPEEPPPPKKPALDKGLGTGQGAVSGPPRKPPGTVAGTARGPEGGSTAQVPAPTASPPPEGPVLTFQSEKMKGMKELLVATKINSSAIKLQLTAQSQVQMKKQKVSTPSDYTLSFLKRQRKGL
The experiment can be described thus: Inhibitory activity against Menin-MLL binding (fluorescence polarization). Conditions: Menin-MLL IC50, fluorescence polarization; 150 nM His-Menin, 15 nM FITC-MLL; 25°C for 60 min. Summed up:
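His-Menin (M1-L615, 150 nM) preincubated with compound 15 min at 25 °C in HEPES pH 7.5, 50 mM NaCl, 1 mM DTT, 0.01% BSA, then 15 nM FITC-MLL4-43 peptide added for 60 min at 25 °C. Fluorescence polarization read; IC50 from 4-parameter logistic fit, duplicates.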
(Fluorescence polarisation rises when a labelled molecule tumbles more slowly, as on binding a larger partner.)
With `CCS(=O)(=O)N[C@H]1CC[C@H](CN2CCCC(c3cc(-c4ccc(F)cc4C(=O)N(CC(F)F)C(C)C)c4cnn(C)c4c3)C2)CC1` (some centres unmarked) [Example 170, N-(2,2-difluoroethyl)-5-fluoro-2-[1-methyl-6-(1-{[(1r,4r)-4-ethanesulfonamidocyclohexyl]methyl}piperidin-3-yl)-1H-indazol-4-yl]-N-(isopropyl)benzamide], the IC50 came out at 0.06 µM. `CCS(=O)(=O)N(C)[C@H]1CC[C@H](CN2CC(c3cc(-c4ccc(F)cc4C(=O)N4CCOC[C@H]4C)c4cnn(C)c4c3)C2)CC1` [Example 174, N-methyl-N-[(1r,4r)-4-{[3-(4-{4-fluoro-2-[(3R)-3-methylmorpholin-4-carbonyl]phenyl}-1-methyl-1H-indazol-6-yl)azacyclobutan-1-yl]methyl}cyclohexyl]ethan-1-sulfonamide]: the 50% inhibitory concentration (IC50) was 0.125 µM.

As to `CCS(=O)(=O)N[C@H]1CC[C@H](CC(C)N2CC(c3cc(-c4ccc(F)cc4C(=O)N4CCOC[C@H]4C)c4cnn(C)c4c3)C2)CC1` (stereo partly drawn) [Example 175, N-[(1r,4r)-4-{2-[3-(4-{4-fluoro-2-[(3R)-3-methylmorpholin-4-carbonyl]phenyl}-1-methyl-1H-indazol-6-yl)azacyclobutan-1-yl]propyl}cyclohexyl]ethan-1-sulfonamide], the IC50 was found to be 0.138 µM. `CCS(=O)(=O)N[C@H]1CC[C@H](C(C)N2CC(c3cc(-c4ccc(F)cc4C(=O)N4CCOC[C@H]4C)c4cnn(C)c4c3)C2)CC1` (stereo partly drawn) [Example 178, N-[(1r,4r)-4-{1-[3-(4-{4-fluoro-2-[(3R)-3-methylmorpholin-4-carbonyl]phenyl}-1-methyl-1H-indazol-6-yl)azacyclobutan-1-yl]ethyl}cyclohexyl]ethan-1-sulfonamide]: the IC50 worked out at 0.115 µM. Molecule `CNC(=O)[C@H]1CC[C@H](CN2CC(c3cc(-c4ccc(F)cc4C(=O)N4CCOC[C@H]4C)c4c(F)nc(C)n4c3)C2)CC1` [Example 237, (1r,4r)-4-{[3-(1-fluoro-8-{4-fluoro-2-[(3R)-3-methylmorpholin-4-carbonyl]phenyl}-3-methylimidazo[1,5-a]pyridin-6-yl)azacyclobutan-1-yl]methyl}-N-methylcyclohexan-1-formamide] returned an IC50 of 0.034 µM.

Staying with this experiment, now noted: fluorescence polarization; 150 nM His-Menin, 15 nM FITC-MLL; 25°C for 60 min; read-out: Menin-MLL IC50.
For the molecule `C[C@@H]1COCCN1C(=O)c1cc(F)ccc1-c1cc(C2CN(CC3CCN(C(=O)C4(O)CC4)CC3)C2)cc2c1cnn2C` [Example 171, 1-(4-{[3-(4-{4-fluoro-2-[(3R)-3-methylmorpholin-4-carbonyl]phenyl}-1-methyl-1H-indazol-6-yl)azacyclobutan-1-yl]methyl}piperidin-1-carbonyl)cyclopropan-1-ol], the IC50 worked out at 0.086 µM. In the case of `CNC(=O)N1CCC(CN2CC(c3cc(-c4ccc(F)cc4C(=O)N4CCOC[C@H]4C)c4cnn(C)c4c3)C2)CC1` [Example 172], the IC50 stood at 0.098 µM. The same measure, in the same setting: under `C[C@@H]1COCCN1C(=O)c1cc(F)ccc1-c1cc(C2CN(CC3CCN(C(=O)CC#N)CC3)C2)cc2c1cnn2C` [Example 173] stands 0.118 µM; under `CC(C)CS(=O)(=O)N1CCC(CN2CC(c3cc(-c4ccc(F)cc4C(=O)N4CCOC[C@H]4C)c4cnn(C)c4c3)C2)CC1` [Example 176], 0.424 µM; under `CC(=O)N1CCC(CN2CC(c3cc(-c4ccc(F)cc4C(=O)N4CCOC[C@H]4C)c4cnn(C)c4c3)C2)CC1` [Example 177], 0.217 µM.

For `COCCN(C)CCCC(C(C)C)N1CC(Cc2cc(-c3ccc(F)cc3C(=O)N3CCOC[C@H]3C)c3cnn(C)c3c2)C1` (some centres unmarked) [Example 179], the IC50 turned out to be 0.089 µM. As to `COCCN(C)CCCC(C(C)C)N1CC(c2cc(-c3ccc(F)cc3C(=O)N(CC(F)F)C(C)C)c3cnn(C)c3c2)C1` (centres unmarked) [Example 180], the IC50 is 0.022 µM. On to `COC1CCN(CCC[C@@H](C(C)C)N2CC(c3cc(-c4ccc(F)cc4C(=O)N4CCOC[C@H]4C)c4cnn(C)c4c3)C2)CC1` [Example 181-1, 4-{4-fluoro-2-[(3R)-3-methylmorpholin-4-carbonyl]phenyl}-6-{1-[(3S)-6-(4-methoxypiperidin-1-yl)-2-methylhexan-3-yl]azacyclobutan-3-yl}-1-methyl-1H-indazole], for which the half-inhibitory concentration (IC50) came to 0.621 µM. Same read-out and setting: in the case of `COCC1CN(CCC[C@@H](C(C)C)N2CC(c3cc(-c4ccc(F)cc4C(=O)N4CCOC[C@H]4C)c4cnn(C)c4c3)C2)C1` [Example 183-1] it was 0.507 µM. For `CO[C@H]1CCN(CCC[C@@H](C(C)C)N2CC(c3cc(-c4ccc(F)cc4C(=O)N4CCOC[C@H]4C)c4cnn(C)c4c3)C2)C1` [Example 184-1], the IC50 was determined as 0.805 µM. Regarding `COCCN(C)CCC[C@@H](C(C)C)N1CC(c2cc(-c3ccc(F)cc3C(=O)N3[C@H](C)COC[C@H]3C)c3cnn(C)c3c2)C1` [Example 186-1, [(4S)-4-[3-(4-{2-[(3R,5R)-3,5-dimethylmorpholin-4-carbonyl]-4-fluorophenyl}-1-methyl-1H-indazol-6-yl)azacyclobutan-1-yl]-5-methylhexyl](2-methoxyethyl)methylamine], the IC50 is 0.262 µM. With `Cc1nc(F)c2c(-c3ccc(F)cc3C(=O)N3CCOC[C@H]3C)cc(C3CN([C@H](CCCN4CCOCC4)C(C)C)C3)cn12` [Example 199-1, (3R)-4-[5-fluoro-2-(1-fluoro-3-methyl-6-{1-[(3R)-2-methyl-6-(morpholin-4-yl)hexan-3-yl]azacyclobutan-3-yl}imidazo[1,5-a]pyridin-8-yl)benzoyl]-3-methylmorpholine], the IC50 worked out at 0.026 µM. On to `Cc1nc(F)c2c(-c3ccc(F)cc3C(=O)N3CCOC[C@H]3C)cc(C3CN([C@@H](CCCN4CCOCC4)C(C)C)C3)cn12` [Example 199-2, (3R)-4-[5-fluoro-2-(1-fluoro-3-methyl-6-{1-[(3S)-2-methyl-6-(morpholin-4-yl)hexan-3-yl]azacyclobutan-3-yl}imidazo[1,5-a]pyridin-8-yl)benzoyl]-3-methylmorpholine], for which the IC50 is 0.205 µM.

As for `COCCN(C)CCC[C@@H](C(C)C)N1CC(c2cc(-c3ccc(F)cc3C(=O)N3CCOC[C@H]3C)c3c(F)nc(C)n3c2)C1` [Example 200-2], the IC50 is 0.075 µM. Consider `COC1CCN(CCCC(C(C)C)N2CC(c3cc(-c4ccc(F)cc4C(=O)N4CCOCC4C)c4c(F)nc(C)n4c3)C2)C1` (centres unmarked) [Example 201-2], for which the IC50 was found to be 0.056 µM. As to `Cc1nc(F)c2c(-c3ccc(F)cc3C(=O)N3CCOC[C@H]3C)cc(C3CN(C[C@H]4CC[C@H](c5ncno5)CC4)C3)cn12` [Example 207-1, (3R)-4-{5-fluoro-2-[1-fluoro-3-methyl-6-(1-{[(1r,4r)-4-(1,2,4-oxadiazol-5-yl)cyclohexyl]methyl}azacyclobutan-3-yl)imidazo[1,5-a]pyridin-8yl]benzoyl}-3-methylmorpholine], the half-maximal inhibitory concentration (IC50) was 0.111 µM. On the same count and under the same terms, in the case of `Cc1nc(F)c2c(-c3ccc(F)cc3C(=O)N3CCOC[C@H]3C)cc(C3CN(C[C@H]4CC[C@@H](c5ncno5)CC4)C3)cn12` [Example 207-2, (3R)-4-{5-fluoro-2-[1-fluoro-3-methyl-6-(1-{[(1s,4s)-4-(1,2,4-oxadiazol-5-yl)cyclohexyl]methyl}azacyclobutan-3-yl)imidazo[1,5-a]pyridin-8yl]benzoyl}-3-methylmorpholine] it was 0.269 µM; in that of `Cc1nc(F)c2c(-c3ccc(F)cc3C(=O)N3[C@H](C)COC[C@H]3C)cc(C3CN(CC4(O)CCOCC4)C3)cn12` [Example 220, 4-{[3-(8-{2-[(3R,5R)-3,5-dimethylmorpholin-4-carbonyl]-4-fluorophenyl}-1-fluoro-3-methylimidazo[1,5-a]pyridin-6-yl)azacyclobutan-1-yl]methyl}oxacyclohexan-4-ol], 0.167 µM; in that of `CC(=O)N1CCC(CN2CC(Cc3cc(-c4ccc(F)cc4C(=O)N4[C@H](C)COC[C@H]4C)c4c(F)nc(C)n4c3)C2)CC1` [Example 228], 0.13 µM. In the case of `Cc1nc(F)c2c(-c3ccc(F)cc3C(=O)N3[C@H](C)COC[C@H]3C)cc(CC3CN(CC4CCOCC4)C3)cn12` [Example 229], the IC50 turned out to be 0.057 µM. Still for that read-out and setting: in the case of `Cc1nc(F)c2c(-c3ccc(F)cc3C(=O)N3[C@H](C)COC[C@H]3C)cc(C3CN(CC4CCN(C(=O)c5cnoc5)CC4)C3)cn12` [Example 233] it was 0.042 µM; in that of `Cc1nc(F)c2c(-c3ccc(F)cc3C(=O)N3CCOC[C@H]3C)cc(C3CN(CC4CCCOC4)C3)cn12` (some centres unmarked) [Example 235], 0.0495 µM.

With `COC1(CN2CC(c3cc(-c4ccc(F)cc4C(=O)N4CCOC[C@H]4C)c4c(F)nc(C)n4c3)C2)CCOCC1` [Example 236], the IC50 amounted to 0.18 µM.

The experiment is the same for the next values; noted with them: read-out: Menin-MLL IC50; fluorescence polarization; 150 nM His-Menin, 15 nM FITC-MLL; 25°C for 60 min.
As for `CCS(=O)(=O)N[C@H]1CC[C@@H](CN2CC(c3cc(-c4ccc(F)cc4C(=O)N4[C@H](C)COC[C@H]4C)c4c(F)nc(C)n4c3)C2)CC1` [Example 198, N-[(1s,4s)-4-{[3-(8-{2-[(3R,5R)-3,5-dimethylmorpholin-4-carbonyl]-4-fluorophenyl}-1-fluoro-3-methylimidazo[1,5-a]pyridin-6-yl)azacyclobutan-1-yl]methyl}cyclohexyl]ethan-1-sulfonamide], the IC50 came to 0.004 µM.

In general, IC50 refers to the concentration needed to halve the response being measured.

The values above are taken from patent EP4782453A1 (Beyang Therapeutics Co., Ltd., priority 2023, dated 2025).
